The text below walks through data of US20250099535A1, “GEPOTIDACIN AND VANCOMYCIN FOR USE IN THE TREATMENT OF AN INFECTION CAUSED BY STAPHYLOCOCCUS SAPROPHYTICUS” (GlaxoSmithKline Intellectual Property Development Limited, priority 2022, published 2025).

Holding throughout (assay type): cell-based
The subject of experiment [1] is Staphylococcus saprophyticus. Put plainly: Time-kill kinetic assay. The note with it: 1× MIC, 5 S. saprophyticus isolates. The method, then: CAMHB was used for the follow-up time-kill kinetic studies. Each organism was tested in media containing either compound alone, or both, at ½×, ¼×, and 1× their respective MICs. Time-kill concentration tubes were sampled at time 0 hours (T0), T2, T4, T8, and T24. Samples were serially diluted ten-fold up to 8 times in tubes with […] of a 0.85% saline solution. A volume of 0.1 mL was then plated onto tryptic-soy agar with 5% sheep blood from the original sample and subsequent dilutions. Plates were incubated for 24 hours at 35° C. before quantifying the viable cell count for each tube at the specified times (T0-T24).
As described in the CLSI M26-A manual, bactericidal activity was defined as a 3-log10 decrease in CFU/mL below the starting inoculum that was maintained for 24 hours. […] The number of surviving organisms in the presence of the combination was required to be ≥2 log10 CFU/mL below the starting inocula and at least one of the drugs should not affect the growth curve of the tested organism.

The test system of experiment [2] is Staphylococcus saprophyticus. Put plainly: Baseline broth microdilution MIC (CLSI M07). The method, then:
(§1) MIC values were determined in triplicate by Clinical and Laboratory Standards Institute (CLSI) […] (2018) reference broth microdilution (BMD) using cation adjusted Mueller Hinton broth (CAMHB) to determine a consensus median baseline MIC value for each isolate and compound. As required by CLSI M100 (2021), quality control (QC) strains Escherichia coli ATCC 25922, Pseudomonas aeruginosa ATCC 27853, Staphylococcus aureus 29213, and Enterococcus faecalis ATCC 29212 were tested concomitantly with the clinical isolates. (QC data not shown).
A general note: In broth dilution the organism is exposed to a series of concentrations in liquid medium.

Another experiment relates to Enterococcus faecalis. Put plainly: Baseline broth microdilution MIC (CLSI M07). The settings on record: for MIC: Enterococcus faecalis. As to the method:
as §1

What is called MIC is the least concentration at which growth counts as inhibited.

The structures appear in SMILES notation. Converted amounts (≈) assume the structure as drawn. Where two headings read alike, the source gives them in different places.

Regarding `O=c1ccc2ncc(=O)n3c2n1C[C@H]3CN1CCC(NCc2cc3c(cn2)OCCC3)CC1` [gepotidacin, (2R)-2-({4-[(3,4-dihydro-2H-pyrano[2,3-c]pyridin-6-ylmethyl)amino]-1-piperidinyl}methyl)-1,2-dihydro-3H,8H-2a,5,8a-triazaacenaphthylene-3,8-dione], the “Bactericidal activity (3-log10 decrease in CFU/mL below the starting inoculum maintained for 24 hours)” value in experiment [1] was “not achieved”. For the same compound, the MIC in experiment [2] (isolate S. saprophyticus 1106006, CAMHB, read-out: GEP MIC) amounted to 0.25 mg/L (≈ 0.557 µM); in experiment [2] (isolate S. saprophyticus 1113726, CAMHB, read-out: GEP MIC), 0.12 mg/L (≈ 0.268 µM); in experiment [2] (isolate S. saprophyticus 1115244, CAMHB, read-out: GEP MIC), 0.12 mg/L (≈ 0.268 µM); in experiment [2] (isolate S. saprophyticus 1125669, CAMHB, read-out: GEP MIC) it was 0.25 mg/L (≈ 0.557 µM); in experiment [2] (isolate S. saprophyticus 1129086, CAMHB, read-out: GEP MIC), 0.25 mg/L (≈ 0.557 µM); in the experiment on Enterococcus faecalis (isolate E. faecalis 1097863, CAMHB, read-out: GEP MIC), 1 mg/L (≈ 2.23 µM). The minimal inhibitory concentration (MIC) in the experiment on Enterococcus faecalis (isolate E. faecalis 1103597, CAMHB, read-out: GEP MIC) was found to be 0.5 mg/L (≈ 1.11 µM); in the experiment on Enterococcus faecalis (isolate E. faecalis 1103850, CAMHB, read-out: GEP MIC), 0.5 mg/L (≈ 1.11 µM); in the experiment on Enterococcus faecalis (isolate E. faecalis 1111210, CAMHB, read-out: GEP MIC), 1 mg/L (≈ 2.23 µM); in the experiment on Enterococcus faecalis (isolate E. faecalis 1124756, CAMHB, read-out: GEP MIC) it was 0.5 mg/L (≈ 1.11 µM).

Take `CN[C@H](CC(C)C)C(=O)N[C@H]1C(=O)N[C@@H](CC(N)=O)C(=O)N[C@H]2C(=O)N[C@H]3C(=O)N[C@H](C(=O)N[C@H](C(=O)O)c4cc(O)cc(O)c4-c4cc3ccc4O)[C@H](O)c3ccc(c(Cl)c3)Oc3cc2cc(c3O[C@@H]2O[C@H](CO)[C@@H](O)[C@H](O)[C@H]2O[C@H]2C[C@](C)(N)[C@H](O)[C@H](C)O2)Oc2ccc(cc2Cl)[C@H]1O` [vancomycin]: the “Bactericidal activity (3-log10 decrease in CFU/mL below the starting inoculum maintained for 24 hours)” value in experiment [1] is reported as “not achieved”. The minimum inhibitory concentration (MIC) in experiment [2] (read-out: VANC MIC, isolate S. saprophyticus 1106006, CAMHB) was found to be 0.5 mg/L (≈ 0.345 µM); in experiment [2] (read-out: VANC MIC, isolate S. saprophyticus 1113726, CAMHB) it was 1 mg/L (≈ 0.69 µM); in experiment [2] (read-out: VANC MIC, isolate S. saprophyticus 1115244, CAMHB), 1 mg/L (≈ 0.69 µM); in experiment [2] (read-out: VANC MIC, isolate S. saprophyticus 1125669, CAMHB) it was 1 mg/L (≈ 0.69 µM); in experiment [2] (read-out: VANC MIC, isolate S. saprophyticus 1129086, CAMHB), 0.5 mg/L (≈ 0.345 µM); in the experiment with Enterococcus faecalis (read-out: VANC MIC), 1 mg/L (≈ 0.69 µM). Further, the “VANC MIC” value with Enterococcus faecalis (isolate E. faecalis 1103597, CAMHB) stood at 1 mg/L; in the experiment with Enterococcus faecalis (isolate E. faecalis 1103850, CAMHB), 1 mg/L; in the experiment with Enterococcus faecalis (isolate E. faecalis 1111210, CAMHB), 1 mg/L; with Enterococcus faecalis (isolate E. faecalis 1124756, CAMHB), 1 mg/L.
